Earlier results, collected in US8802148B2, “Microparticles and method for their production” (Alrise Biosystems GmbH, priority 2002, dated 2014).
Where a name gives a salt, the structure may show the parent alone.

Conditions: at 20-25° C.

| Structure (SMILES) | Solubility in water (w/w) [%] |
| --- | --- |
| CCCOC(C)=O [propyl acetate] | 1.67 |
| COC(C)=O [methyl acetate] | 22.8 |
| CCOC(C)=O [ethyl acetate] | 7.43 |
| CCCOC=O [propyl formate] | 2.82 |
| CC(=O)OC(C)C [iIsopropyl acetate, isopropyl acetate] | 3.09 |
| CCOC=O [ethyl formate] | 8.4 |
